Patent publication US9375413B2, “Methods of reducing milk somatic cell count” ([…], priority 2014, dated 2016)

Columns and labels:
[1] = tested on: Twin-bearing, multiparous Romney ewes; test: Milk composition (crude protein, somatic cell count, fat, lactose) and milk yield after L-arginine supplementation from day 100 of pregnancy to parturition (Example 1); format: in vivo, sheep
Description: (§1) Twin-bearing, multiparous Romney ewes were housed in individual stalls and fed once daily, a lucerne-based pellet diet formulated to meet 100% of the NRC-recommended maintenance requirements for twin-bearing pregnant and lactating ewes throughout the trial.
(§2) From day 100 of pregnancy to parturition, ewes received either an injected bolus of L-arginine-mono-hydrochloride (L-arginine-HCL; Merck KGaA, Darmstadt, Germany; 345 μmol/kg body weight (BW)) or a control being approximately the same volume of sterile saline injected three times daily (0800, 1600, 2400 hrs).
At the first sign of labour induction, which was between 1 and 10 hours (h) prior to birth, L-arginine treatment ceased and ewes were allowed to lamb naturally. In total 25 ewes were used (arginine group, n=13; control group n=12).
Ewes were assigned to milking groups based on parturition date. Collection of a colostrum sample within the 12 h post partum could have compromised animal behaviour and ewe-lamb bond formation. Therefore, a range of 0.58-1.22 days in lactation was produced when the “colostrum” sample was collected. Ewes were then milked approximately at day 1, 4, 7, 10 and 14 of lactation, using the oxytocin method. At each milking, ewes were milked by machine followed by hand stripping, after an intravenous injection of 1 IU of synthetic oxytocin (Oxytocin V, 10 IU/mL). The time when the udder was empty was recorded. Animals were milked again (machine and hand-stripping) approximately 4 h later, with the time and weight of the milk recorded. Lambs were separated from the ewes and bottle-fed as required during the intervening period, using the milk collected from their respective dam. The same operators milked all ewes on each occasion in this study using a mobile milking machine. Milk obtained after the 4 h intervening period was subsampled for analysis of milk composition (% fat, % crude protein (CP), % lactose and somatic cell count). Milk samples were preserved with bronopol and refrigerated at 4° C. until analysis using a FT120-FTIR, calibrated for sheep milk. Two reference checks (fat and CP) were taken during lactation to account for changes in the matrix of the milk due to stage of lactation. Somatic cell counts were determined using a bromide based fluorescent dye and a FOSS flow Cytometer and values log transformed. Ewes were weighed and body condition scored (scale of 1 to 5) once a week.
Throughout milking, dams and offspring were housed in individual pens immediately adjacent to each other. Daily milk yield was calculated. Repeated measures analysis of milk yield and composition using the MIXED procedure with a linear model that included the fixed effects of dam, dam treatment group, and the covariates average dam live weight, average dam body condition score and days in lactation were included in the model. From the 25 ewes available only 18 were used for statistical analysis (arginine group n=8; control group n=10).

[2] = tested on: Twin-bearing, multiparous Romney ewes; test: Milk free amino acid profiles by HPLC (Example 1); format: in vivo, sheep; details: saline-treated controls compared to L-arginine treated ewes
Description: as §1, §2
Milk free amino acids (FAA) were analysed using High-Performance Liquid Chromatography (HPLC). Skim milk (500 μL) was mixed with 500-4, lithium extraction buffer (14 g/L lithium chloride, 3 g/L lithium hydroxide, 1 g/L phenol, 50 g/L sulfosalic acid) and placed on ice for 15 to 20 min. Volumes of 10-μL lithium hydroxide (5.88 M) were added to the sample to obtain a final pH of 1.5 to 2. This was followed by centrifugation at 13,680×g for 5 min at 4° C., and the resulting supernatant was filtered through a 4 mm 0.2 μm syringe filter. The filtered sample was analysed for FAA using a Shimadzu LC 10Ai HPLC, fitted with a high-efficiency lithium-ion exchange column (3 mm i.d.×150 mm) Injected volumes were 10 μL, the reagent flow rate was 0.3 mL/min, and the run was 162 min between injections, using lithium buffers as elutants and ninhydrin post column derivatization. Free amino acid values are reported as μmol per liter of milk. Differences between treatment groups were analysed using the MIXED procedure (SAS) with a linear model that included the fixed effects of dam, dam treatment group, and the covariates average dam live weight, average dam body condition score and days in lactation were included in the model.

[3] = Effect of i.v. bolus on plasma arginine concentration; format: in vivo, sheep
Description: FIG. 4 is a graph from the above study illustrating plasma arginine concentrations immediately prior to (−5 min) and 30, 60 and 180 minutes following an i.v. bolus of arginine or saline (controls) in twin-bearing ewes (n=9/group) at 120 days gestation.
FIG. 5 is a graph from the above study illustrating plasma arginine concentrations 1 hour following a bolus of arginine or saline (controls) and immediately prior to slaughter at day 140 gestation in twin-bearing ewes (n=6/group).
To determine the magnitude of the increase in circulating Arg concentrations following a single bolus (3 boluses were given each day), plasma samples collected from all ewes at day 120 of gestation at time −5 (immediately prior to bolus), 30, 60 and 180 minutes following the bolus (Arg or saline) were analysed for Arg concentration using reverse-phase high-performance liquid chromatography (Sales et al., 2012). Nine ewes per treatment group were randomly selected for analysis.

twin-bearing ewes = test: Somatic cell count (SCC) in milk after arginine supplementation in mid-late gestation (Example 2); format: in vivo, sheep; details: for somatic cell count (SCC) lower than controls: trend P<0.15
Description: FIG. 3 is a graph from a further study confirming the effect of arginine supplementation from 100 days gestation to birth in twin-bearing ewes on somatic cell count (SCC) in milk. Data was log transformed for analysis—back transformed values are presented.
In a second experiment ewes were supplemented with arginine during mid-late gestation that stopped at parturition.

sheep = details: not in gestation, one off dose; cited from earlier work
[4] = tested on: non-gestational (and pre-ruminant) calves; details: cited from earlier work

With `Cl.N=C(N)NCCC[C@H](N)C(=O)O` [L-arginine, L-arginine-mono-hydrochloride] the “MSC count compared to control animals” value ([1]; between day 1 and day 4 post parturition and administration stopping) was “significantly lower”, the “Milk somatic cell counts” value ([1]; day 4-14 of lactation, compared to saline-treated controls) was “decreased” and the MSC counts ([1]; ewes treated with L-arginine, untreated ewes higher than 500,000) was “below 300,000”. For the same compound, the fat percentage ([1]; milk, day 1 of lactation, saline-treated controls compared to L-arginine treated ewes) was “trend for increased fat percentage at day 1 in saline-treated controls”, the Crude protein percentage ([1]; milk, day 4-7 of lactation, compared to saline-treated controls, 345 μmol/kg BW three times daily) was “increased” and the “crude milk protein percentage” value ([1]; milk, day 14 of lactation, saline-treated controls compared to L-arginine-treated ewes) was “trend for increased crude milk protein percentage was observed in saline-treated controls”. The lactose percentage ([1]; milk, post parturition, versus saline-treated controls) was “No effect”, the “duration of protective response in terms of milk somatic cell count” value ([1]; post administration (administration day 100 to parturition)) was “at least 14 days” and the milk yield ([1]; post parturition, versus saline-treated controls) was “No effect”. For the same compound, the “absolute milk free concentration of histidine” value ([2]; day 7 post parturition) was “significantly decreased in saline-treated controls”, the “absolute milk free concentration of phenyalanine” value ([2]; day 7 post parturition) was “significantly decreased in saline-treated controls” and the “absolute milk free concentration of tryptophan” value ([2]; day 7 post parturition) was “significantly decreased in saline-treated controls”. The “absolute milk free concentration of tyrosine” value ([2]; day 7 post parturition) was “significantly decreased in saline-treated controls”, the milk free asparagine ([2]; day 14 post parturition) was “significantly decreased” and the milk free glutamate ([2]; day 14 post parturition) was “trends for decreased”. The milk free leucine ([2]; day 14 post parturition) was “trends for decreased”, the milk free tyrosine ([2]; day 14 post parturition) was “trends for decreased” and the “increase in circulating Arg concentrations” value ([3]; 30 minutes following single i.v. bolus, day 120 of gestation) was 4 fold. For the same compound, the “plasma Arg relative to controls” value ([3]; 1 hour following a bolus, immediately prior to slaughter at 140 days of gestation, P<0.0001) was 4.6 times higher than controls, the “time for circulating concentrations of Arg to return to baseline” value ([3]; after i.v. bolus, day 120 of gestation) was no more than 3 h and the “elevated circulating Arg concentrations relative to control” value ([3]; until at least 60 minutes post-dosage, single i.v. bolus, day 120 of gestation) was 3 times the control. The “variation in SCC between animals” value (twin-bearing ewes; control compared to arginine-supplemented ewes, at each time-point and over time) was “greater in the control”, the “somatic cell count (SCC) lower than controls” value (twin-bearing ewes; day 1 (colostrum) of lactation) was 77% and the “somatic cell count (SCC) lower relative to controls” value (twin-bearing ewes; day 7 of lactation) was roughly 75%. For the same compound, the “somatic cell count (SCC) lower than controls” value (twin-bearing ewes; day 10 of lactation) was 53%, the “somatic cell count (SCC) lower relative to controls” value (twin-bearing ewes; day 14 of lactation) was roughly 75% and the SCC in milk (twin-bearing ewes; throughout the period of study, control ewes 787,000-2,594,000 cells/ml) was 366,000-589,000 cells/ml. The “plasma white blood cell levels” value (sheep) was “increase in white blood cell levels” and the “antibody production in plasma” value [4] was “reduction in antibody production”.
